Like-named read-outs stand apart in the source and are kept apart here.
Assays:
MDA-MB-231 cells = assay: Cell anti-proliferation / toxicity assay (CCK-8), MDA-MB-231; format: cell-based
Method: Initial tests designed around assessing whether a synergistic effect would be observed in real when a combination of G9a inhibitor and HDAC inhibitor used in conjunction.
Cell anti-proliferation assays were performed to determine the toxicity of these inhibitors. Several cell lines (MDA-MB-231, MCF-7 and A549) were incubated and then treated with varying concentrations of the inhibitors for 72 h, respectively. […] These compounds were further evaluated against the control cell line HEK293 to test their toxicity with a non-cancerous cell line.
A549, MDA-MB-231, MCF-7 and HEK293 cells were seeded at 8000-10000 cells (100 μl) in white 96-well plates and pre-incubate the plate for 24 h under standard cell culture conditions, respectively. And then the cells were exposed to the different inhibitors with various concentrations for 72 h. Finally, 10 μl of CCK-8 kit solution was added to each well and incubated for 3-4 hours under standard cell culture conditions, and the 96 well plates were measured the absorbance at 450 nm using Perkin–Elmer Wallac Victor ^3V 1420 multi label plate reader (Perkin–Elmer, Wellesley, USA). EC50s were calculated using GraphPad Prizm statistical package with sigmoidal variable slope dose response curve fit.

MCF-7 cells = assay: Cell anti-proliferation / toxicity assay (CCK-8), MCF-7; format: cell-based
Method: (§1) Cell anti-proliferation assays were performed to determine the toxicity of these inhibitors. […] These compounds were further evaluated against the control cell line HEK293 to test their toxicity with a non-cancerous cell line.
(§2) And then the cells were exposed to the different inhibitors with various concentrations for 72 h. […] EC50s were calculated using GraphPad Prizm statistical package with sigmoidal variable slope dose response curve fit.

A549 cells = assay: Cell anti-proliferation / toxicity assay (CCK-8), A549; format: cell-based; conditions: Homo sapiens, Table 6, 72 h, >100 = not reached at highest tested concentration (100 μM)
Method: as §1, §2

HEK293 cells = assay: Cell anti-proliferation / toxicity assay (CCK-8), HEK293 normal cell line; format: cell-based; conditions: Homo sapiens, Table 6, 72 h
Method: as §1, §2

[1] = target: T1, Mouse histone methyltransferase G9a (969-1263) (Mus musculus, UniProt Q9Z148); assay: MALDI-TOF methylation study of G9a enzymatic activity (H3 peptide, SAM); format: biochemical; conditions: Supplementary Table 1; inhibitor 5 μM, 30 min; average of 3 values
T1 construct: The 6His-sumo mG9a (969-1263) protein was purified using the following procedure; 6His-sumo (N, cleaved yes); made in house; host or cells: Escherichia coli BL21 (DE3)
T1 sequence (Q9Z148 969-1263): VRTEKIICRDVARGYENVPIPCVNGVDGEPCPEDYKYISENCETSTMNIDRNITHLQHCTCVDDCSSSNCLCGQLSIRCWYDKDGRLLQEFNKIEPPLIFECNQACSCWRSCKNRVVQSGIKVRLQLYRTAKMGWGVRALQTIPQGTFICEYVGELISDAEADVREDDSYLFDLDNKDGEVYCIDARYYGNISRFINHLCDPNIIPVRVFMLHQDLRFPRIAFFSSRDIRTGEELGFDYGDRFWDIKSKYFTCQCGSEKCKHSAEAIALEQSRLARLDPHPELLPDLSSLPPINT
Method: Figure 3 compounds were synthesized from the commercially available starting material 1. An initial displacement reaction using a primary amine was used to introduce the C4 selective substitution, with the second displacement to introduce the linker at the C2 position following the microwave assisted reaction previously reported. Boc-protected ethylene diamine was treated with compound 2 at 160°C in a microwave for 10 min to yield product 3 with excellent yield. Afterward, the amine 3 was deprotected with TFA/DCM, and the free amine was treated with corresponding monomethyl esters (carbon chain 2-6) in the presence of coupling reagent EDCI and HOBt for about 8 hours to produce mono methyl ester substituted at the C2 position. The ester compounds further treated with hydroxylamine in water to get the corresponding hydroxamic acid derivatives, which were purified using reverse phase flash chromatography to obtain compounds 4-7 and 4a-7a in good yield. Synthesis of compounds in Figure 4 requires the C6 demethoxy core, and this was synthesized according to the reported procedure to yield 10 [45]. […] Compounds with the HDAC pharmacophore at the C4 position (Figure 2B) were synthesized from the starting material 1. […] A parallel synthesis and testing strategy were used in establishing the primary SAR, with the clear rationalization of the structure and activity at each stage we could reduce the synthetic targets. Initially, we evaluated the G9a potential after the introduction of HDAC pharmacophore. A biochemical assay using MALDI-TOF was used to visualize the effects of the synthesized compounds on G9a enzymatic activity, we carried out a biochemical reaction involving target enzyme G9a, methyl donor SAM and substrate H3 peptide at a concentration of 400 nM, 10 μM and 5 μM respectively.
Mouse histone methyltransferase G9a (969-1263) cDNA was amplified from the cDNA of BALB/c mouse thymus, and the fragment was sub-cloned into a vector with a 6His-sumo tag. The mouse G9a (mG9a) was expressed in Escherichia coli BL21 (DE3) by the addition of 1 mM isopropyl-1-thio-D-galactopyranoside (IPTG) and incubated overnight at 16°C.
The in vitro inhibition of G9a by the synthesized compounds were measured by MALDI-TOF mass spectrum (Bruker MALDI TOF/TOF Analyzer). 400 nM purified G9a, 5 μM synthesized histone H3 (1-21) and 10 μM non-radioactive S-adenosyl methionine (Sigma) were added in reaction buffer (50 mM HEPES pH 8.0, 5 μg/ml BSA and 0.1% β-Mercaptoethanol) with or without inhibitors (5 μM). The reaction was incubated at room temperature for 30 min, and stopped by TFA. 1 μl of the sample was mixed with CHCA matrix and m/z peaks were obtained at reflection positive mode. The results of mass spectrum were analyzed using the Bruker flex analysis software, a detailed description of data processing is provided as supplementary information (S3).
[…]
MALDI spectrums were collected using Bruker flex % conversion to product is also C, from this to get the control software and analyzed by flex analysis. After %maximal activity (%MA), C was compared to the % labelling each cluster peaks of H3K9Me0, H3K9Me1 conversion when no inhibitor was used (D). and H3K9Me2 for all of the tested concentrations, area Finally % inhibition was found by subtracting under the cluster (AUC) were extracted by using the same %MA from 100 […]
flex analysis software. % abundance of each peak was Example: % methylation levels and % inhibition calculated by following formula, when used 5 μM compound 14
A = % Abundance of (H3K9Me0) = area of A = 13.09
B = % Abundance of (H3K9Me1) = area of % conversion when no inhibitor was used D = 84.43 H3K9Me1/ (area of H3K9Me0+area of H3K9Me1 + area (average of six measurements) […]

HDAC [2] = assay: Homogeneous cellular histone deacetylase assay, Hela; format: cell-based, human; conditions: Supplementary Table 2; NA = not active up to highest concentration tested (100 μM); >100 = IC50 not reached at 100 μM; read-out: IC50-HDAC Hela
Method: (§3) The enzymatic activity of HDAC was measured in intact cells using the homogeneous cellular assay method. A cell-permeable peptide Boc-K(Ac)-AMC used as the HDAC substrate, after deacetylation it is cleaved by trypsin to release the fluorescent 7-amino-4-methylcoumarin (AMC) and further quantified.
(§4) The manual assay was developed by Thomas's group. […] After 24 h, 9 μl inhibitors with different concentration were added to the HeLa cells and incubation was continued for 3 h under cell culture conditions. After this treatment period, 10 μl of a 2 mM stock solution of the substrate Boc-K(Ac)-AMC was added into the 96 well plates with Hela cells and inhibitors. […] A549 and K562 cell lines used the same method, respectively. IC50s were calculated using GraphPad Prizm statistical package with sigmoidal variable slope dose response curve fit.

HDAC [3] = assay: Homogeneous cellular histone deacetylase assay, K562; format: cell-based, human; conditions: Supplementary Table 2; NA = not active up to highest concentration tested (100 μM); >100 = IC50 not reached at 100 μM; read-out: IC50-HDAC K562
Method: as §3, §4

HDAC [4] = assay: Homogeneous cellular histone deacetylase assay, A549; format: cell-based, human; conditions: Supplementary Table 2; NA = not active up to highest concentration tested (100 μM); >100 = IC50 not reached at 100 μM
Method: as §3, §4

[5] = Homo sapiens, MDA-MB-231, Table 6, 72 h, CCK-8, mean ± SD of triplicates, read-out: EC50 MDA-MB-231
[6] = Homo sapiens, MDA-MB-231, read-out: EC50, MDA-MB-231 (combination study)
[7] = Homo sapiens, MDA-MB-231, Supplementary Table 4, 72 h, CCK-8, >100 = not reached at 100 μM, read-out: EC50 MDA-MB-231
[8] = Homo sapiens, MCF7, Supplementary Table 4, 72 h, CCK-8, >100 = not reached at 100 μM, read-out: EC50 MCF-7

| Structure (SMILES) | inhibition at 5 µM [1] | EC50 (MDA-MB-231 cells; [7]) | EC50 (MCF-7 cells; [8]) | further results |
| --- | --- | --- | --- | --- |
| COc1cc2c(NC3CCN(C(C)C)CC3)nc(N3CCCN(C)CC3)nc2cc1OCCCCCCC(=O)NO [Compound 26, N-hydroxy-7-((4-((1-isopropylpiperidin-4-yl)amino)-6-methoxy-2-(4-methyl-1,4-diazepan-1-yl)quinazolin-7-yl)oxy)heptanamide] | – | 31.3 ± 3.3 µM | > 100 µM | – |
| CN1CCCN(c2nc(NC3CCN(Cc4ccccc4)CC3)c3ccc(OCCCCCCCC(=O)NO)cc3n2)CC1 [Compound 30, 8-((4-((1-benzylpiperidin-4-yl)amino)-2-(4-methyl-1,4-diazepan-1-yl)quinazolin-7-yl)oxy)-N-hydroxyoctanamide] | – | – | – | EC50 (MDA-MB-231 cells; Supplementary Table 4, 72 h, CCK-8, >100 = not reached at 100 μM, read-out: EC50 MDA-MB-231): 24 ± 3.64 µM; EC50 (MCF-7 cells; Supplementary Table 4, 72 h, CCK-8, >100 = not reached at 100 μM, read-out: EC50 MCF-7): > 100 µM |
| O=C(CCCCCCC(=O)Nc1ccccc1)NO [SAHA, reference compound] | – | – | – | EC50 (MDA-MB-231 cells; [5]): 2.87 ± 0.84 µM; EC50 (MDA-MB-231 cells; [6]): 2.87 ± 0.84 µM |

More lines, main results first:

| inhibition at 5 µM [1] | Structure (SMILES) | EC50 (MDA-MB-231 cells; [7]) | EC50 (MCF-7 cells; [8]) | further results |
| --- | --- | --- | --- | --- |
| 77.7 ± 5.73% | COc1cc2nc(N3CCCN(C)CC3)nc(NC3CCN(Cc4ccccc4)CC3)c2cc1OC [BIX-01294, reference compound] | – | – | EC50 (MDA-MB-231 cells; [5]): 2.16 ± 0.88 µM; EC50 (MDA-MB-231 cells; [6]): 2.16 ± 0.88 µM; EC50 (MCF-7 cells; Homo sapiens, MCF7, Table 6, 72 h, CCK-8, mean ± SD of triplicates, read-out: EC50 MCF-7): 8.1 ± 1.99 µM; EC50 (MCF-7 cells; Homo sapiens, MCF7, read-out: EC50, MCF-7 (combination study)): 8.1 ± 1.99 µM; EC50 (A549 cells): 21.7 ± 2.73 µM; EC50 (HEK293 cells): 2.05 ± 0.98 µM |
| 65 ± 1.95% | COc1cc2nc(NCCNC(=O)CCCCCC(=O)NO)nc(NC3CCN(C)CC3)c2cc1OC [Compound 5, N1-(2-((6,7-dimethoxy-4-((1-methylpiperidin-4-yl)amino)quinazolin-2-yl)amino)ethyl)-N7-hydroxyheptanediamide] | > 100 µM | > 100 µM | – |
| 26.6 ± 11.3% | COc1cc2nc(NCCNC(=O)CCCCC(=O)NO)nc(NC3CCN(C)CC3)c2cc1OC [Compound 6, N1-(2-((6,7-dimethoxy-4-((1-methylpiperidin-4-yl)amino)quinazolin-2-yl)amino)ethyl)-N6-hydroxyadipamide] | > 100 µM | > 100 µM | – |
| 50.6 ± 16.5% | COc1cc2nc(NCCNC(=O)CCCCC(=O)NO)nc(NC3CCN(C(C)C)CC3)c2cc1OC [Compound 6a, N1-hydroxy-N6-(2-((4-((1-isopropylpiperidin-4-yl)amino)-6,7-dimethoxyquinazolin-2-yl)amino)ethyl)adipamide] | > 100 µM | > 100 µM | – |
| 22.8 ± 26.7% | COc1ccc2c(NCCNC(=O)CCCCCCC(=O)NO)nc(N3CCCN(C)CC3)nc2c1 [Compound 21, N1-hydroxy-N8-(2-((7-methoxy-2-(4-methyl-1,4-diazepan-1-yl)quinazolin-4 yl)amino)ethyl)octanediamide] | > 100 µM | > 100 µM | IC50 (HDAC [2]): > 100 µM; IC50 (HDAC [3]): > 100 µM; IC50 (HDAC [4]): > 100 µM |
